Series [1] has as its system 5xFAD transgenic mice brain. As to the kind of experiment: Histology of β-amyloid deposits in brain samples (Congo Red). The series is classed as in vivo. To be noted: 21-day administration; cortex, midbrain and hippocampus zone; vs 5xFAD. The source says:
As part of the in vivo testing of the biological activity of the leader compound, a transgenic mouse model with Alzheimer’s disease 5xFAD at the age of 13 months was used. This line expresses two human genes: APP (amyloid peptide precursor protein gene) with three types of mutations (Swedish (K670N, M671L), Florida (I716V) and London (V717I)), as well as the presenilin 1 gene with mutations (M146L and L286V) characteristic of this disease. Clinically healthy wildtype single-litter mice C57Bl6/j (n = 8) were used as a control group. Transgenic 5xFAD mice were randomly divided into two groups: (1) animals receiving intraperitoneal injections of hydroxamic acid 35a at a dose of 15 mg/kg (10% DMSO + NaCl) for three weeks—the 5xFAD + 35a group (n = 8) and (2) mice receiving an equivalent volume of solvent—the group 5xFAD (n = 8). All animals were kept in standard vivarium conditions at a temperature of 22 ± 1 °C and a humidity of 55% indoors with a 12-h light–dark cycle. The animals had no restrictions in the consumption of water and food. […]
After cervical dislocation, the half of brain was dissected and fixed with Carnoy’s solution (ethanol–chloroform–glacial acetic acid, 6:3:1) for 17 h. […] The stained deposits were evaluated using a ZEISS LSM 880 laser scanning microscope (Carl Zeiss, Oberkochen, Germany) in the tile scan mode. […]

Series [2] is described as follows: Cell viability, MTT test. The following applies: human, SH-SY5Y neuroblastoma cells, 24-h exposure, read-out: IC50 cytotoxic action. The class given is cell-based. How it is done:
The culture of human neuroblastoma cells (defined as SH-SY5Y) was cultured in DMEM with the addition of embryonic bovine serum (10%), 2 mM glutamine (DiaM, Moscow, Russia) and penicillin-streptomycin (100 U/Ml–100 µg/mL, PanEco, Moscow, Russia) in conditions of 5% CO2 in the air at 37 °C. Upon reaching 80% confluence, cells in the amount of 1 × 10^4 were placed in 96-well transparent plates and incubated under the same conditions for 24 h. After the incubation time, the cells were exposed to a 24-h exposure to various concentrations of hydroxamic acids dissolved in dimethyl sulfoxide (range from 1 to 100 µM). An equivalent volume of solvent was used as a control (final DMSO content = 1%).
Cell survival analysis was performed using MTT test. To do this, 3-(4,5-dimethylthiazol-2-yl)-2,5-diphenyltetrazolium bromide (MTT, 5 mg/mL, DiaM, Moscow, Russia) was introduced into all wells and incubated at 37 °C for 2 h to restore metabolically active cells of the yellow tetrazolium salt MTT to purple formazane crystals. The resulting formazane was then re-suspended in 200 µL DMSO per well. The optical density was recorded using a multifunctional Cytation™3 flatbed analyzer (BioTek Instruments, Inc., Winooski, VT, USA) at λ = 530 nm.

Each structure is given as a SMILES string.

One may read the IC50 as the concentration that gives 50% inhibition. Regarding `C=C(C)[C@@H]1CC=C(CNC(=O)/C=C/c2ccc(C(=O)NO)cc2)CC1` [Compound 35a, (S,E)-N-hydroxy-4-(3-oxo-3-(((4-(prop-1-en-2-yl)cyclohex-1-en-1-yl)methyl)amino)prop-1-en-1-yl)benzamide], the “number of β-amyloid aggregates in the brain” value in series [1] is listed as “decreased significantly”. Moreover, the IC50 at 24 h in series [2] is 89.2 ± 2.09 µM.

These data come from article PMC10254045, “Elaboration of the Effective Multi-Target Therapeutic Platform for the Treatment of Alzheimer’s Disease Based on Novel Monoterpene-Derived Hydroxamic Acids” (International Journal of Molecular Sciences, 2023).
